Test results from patent US20060217370A1, “Compounds useful for the treatment and prevention of pain and screening methods therefor” (priority 2005, published 2006).

Columns and labels:
Experiment in all cases: Receptor Selection and Amplification Technology (R-SAT) functional receptor assay
human MrgX1 = biological target: T1, human MrgX1 (Homo sapiens, UniProt Q96LB2); assay type: cell-based; details: for Human-X1 Eff(%): efficacy relative to Bam22, nr = no response up to 10 micromolar
T1 construct: expressed in transfected cells; host or cells: NIH3T3
Procedure: (§1) The functional receptor assay, Receptor Selection and Amplification Technology (R-SAT), was used to investigate the pharmacological properties of test compounds on MRGX1 or MRGX2 receptors. R-SAT is disclosed in U.S. Pat. Nos. 5,707,798, 5,912,132, and 5,955,281, each of which is incorporated by reference herein in its entirety, including any drawings.
(§2) Briefly, NIH3T3 cells were grown in 96-well tissue culture plates to 70-80% confluence. Cells were transfected for 16-20 h with plasmid DNAs using Polyfect (Qiagen Inc.) and the manufacturer's protocols. R-SATs were generally performed with 4 ng/well of receptor and 20 ng/well of β-galactosidase plasmid DNA. The human MrgX1, simian MrgX1, human MrgX2 and simian MrgX2 receptor genes were amplified by PCR from genomic DNA using oligodeoxynucleotide primers based on SEQ ID NO:1, SEQ ID NO:3, SEQ ID NO:5, SEQ ID NO:7, or SEQ ID NO:9. For large-scale transfections, cells were transfected for 16-20 h, then trypsinized and frozen in DMSO. Frozen cells were later thawed, plated at ˜10,000 cells per well of a 96 half-area well plate that contained test compound. With both methods, cells were then grown in a humidified atmosphere with 5% ambient CO2 for five days. The medium was then removed from the plates and marker gene activity was measured by the addition of the β-galactosidase substrate o-nitrophenyl β-galactopyranoside (ONPG, in PBS with 0.5% NP-40). The resulting colorimetric reaction was measured in a spectrophotometric plate reader (Titertek Inc.) at 420 nm. All data were analyzed using the computer program XLFit (IDBSm). Efficacy is defined as the percent maximal activation compared to activation by a control compound (BAM22 in the case of human or simian MRGX1, STIA or Cortistatin-14 in the case of human or simian MRGX2). pEC50 is the negative of log(EC50), where EC50 is the calculated molar concentration of test compound that produces 50% of maximum activation.
(§3) Efficacy is reported relative to the ligands Bam22 for MrgX1 and STIA for MrgX2.

human MrgX2 = biological target: T2, human MrgX2 (Homo sapiens, UniProt Q96LB1); assay type: cell-based; details: for Human-X2 Eff(%): efficacy relative to STIA, nr = no response up to 10 micromolar; for EC50: transfected NIH3T3 cells, read-out: Human-X2 pEC50 (converted)
T2 construct: expressed in transfected cells; host or cells: NIH3T3
T2 sequence (Q96LB1 1-330): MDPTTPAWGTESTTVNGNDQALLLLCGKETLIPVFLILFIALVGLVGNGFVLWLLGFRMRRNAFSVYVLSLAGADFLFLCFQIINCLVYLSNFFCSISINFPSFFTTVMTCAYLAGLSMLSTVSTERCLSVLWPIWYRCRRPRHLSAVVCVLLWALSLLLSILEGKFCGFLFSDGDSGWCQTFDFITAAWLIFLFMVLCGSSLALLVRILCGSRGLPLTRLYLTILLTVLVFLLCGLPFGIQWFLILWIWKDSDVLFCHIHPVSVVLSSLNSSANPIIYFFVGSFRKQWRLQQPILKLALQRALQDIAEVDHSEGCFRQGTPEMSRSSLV
Procedure: as §1, §2, §3

simian MrgX1 = simian MrgX1 (Macaca mulatta, UniProt Q1L4E8, cells depend on it, form not given, species not given); assay type: cell-based, monkey; details: efficacy relative to Bam22, nr = no response up to 10 micromolar
Procedure: as §1
Briefly, NIH3T3 cells were grown in 96-well tissue culture plates to 70-80% confluence. Cells were transfected for 16-20 h with plasmid DNAs using Polyfect (Qiagen Inc.) and the manufacturer's protocols. R-SATs were generally performed with 4 ng/well of receptor and 20 ng/well of β-galactosidase plasmid DNA. The human MrgX1, simian MrgX1, human MrgX2 and simian MrgX2 receptor genes were amplified by PCR from genomic DNA using oligodeoxynucleotide primers based on SEQ ID NO:1, SEQ ID NO:3, SEQ ID NO:5, SEQ ID NO:7, or SEQ ID NO:9. For large-scale transfections, cells were transfected for 16-20 h, then trypsinized and frozen in DMSO. […] The medium was then removed from the plates and marker gene activity was measured by the addition of the β-galactosidase substrate o-nitrophenyl β-galactopyranoside (ONPG, in PBS with 0.5% NP-40). The resulting colorimetric reaction was measured in a spectrophotometric plate reader (Titertek Inc.) at 420 nm. All data were analyzed using the computer program XLFit (IDBSm). […]

T1 sequence (Q96LB2 whole entry): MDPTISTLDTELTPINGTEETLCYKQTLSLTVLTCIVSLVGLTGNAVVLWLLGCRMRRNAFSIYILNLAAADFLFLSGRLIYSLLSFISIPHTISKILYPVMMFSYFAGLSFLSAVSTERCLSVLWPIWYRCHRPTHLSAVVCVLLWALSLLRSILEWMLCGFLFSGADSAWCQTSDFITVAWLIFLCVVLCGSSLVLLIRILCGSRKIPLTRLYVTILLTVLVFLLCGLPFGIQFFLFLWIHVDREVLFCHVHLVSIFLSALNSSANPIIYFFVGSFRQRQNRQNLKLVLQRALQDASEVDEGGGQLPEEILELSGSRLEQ
Sequence of simian MrgX1 (Q1L4E8 1-322, change not shown): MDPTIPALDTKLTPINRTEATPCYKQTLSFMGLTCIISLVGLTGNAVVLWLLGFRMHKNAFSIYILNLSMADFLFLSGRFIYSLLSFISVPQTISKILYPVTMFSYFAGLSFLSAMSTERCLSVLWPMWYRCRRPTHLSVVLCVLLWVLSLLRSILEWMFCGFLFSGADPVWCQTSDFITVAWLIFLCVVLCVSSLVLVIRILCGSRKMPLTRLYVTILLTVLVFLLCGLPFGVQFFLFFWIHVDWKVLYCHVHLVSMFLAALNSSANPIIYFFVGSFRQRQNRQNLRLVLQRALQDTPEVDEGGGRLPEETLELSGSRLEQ

SMILES	Human-X1 Eff(%) (human MrgX1)	EC50 (human MrgX1; transfected NIH3T3 cells, read-out: Human-X1 pEC50 (converted)) [nM]	Human-X2 Eff(%) (human MrgX2)	EC50 (human MrgX2) [nM]	Monkey-X1 Eff(%) (simian MrgX1)
CC[C@H](C)C1C(=O)Nc2ccc(NCCCN(C)C)cc2-c2nc3cc(C(=O)NCc4cccc(C(F)(F)F)c4)ccc3n21 (some centres unmarked) [Mrg-173]	124%	39.8	98	316	–
CC(C)C1C(=O)Nc2ccc(N3CCN(Cc4ccccc4)CC3)cc2-c2nc3cc(C(=O)N(C)C4CCN(C)CC4)ccc3n21 (centres unmarked) [Mrg-606]	nr	–	174	100	nr
